Earlier results, collected in patent US20130316010A1, “POLYMERIC MICROPARTICLES” (Case Western Reserve University, priority 2010, published 2013).

Tested on: EGFR
Details: rodent glaucomatous optic neuropathy model and optic nerve crush model

Substance: AG1478
- EGFR upregulation and activation of astrocytes: reverses this upregulation and activation of astrocytes
- survival of RGCs: increases the survival of RGCs
